Laboratory results published in ChEMBL document CHEMBL1201862, “PubChem BioAssay data set” (2004).
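Interpolation was linear, between the two tested concentrations surrounding the appropriate level; five concentrations were tested over 48 hours in 96-well plates. GI50 is the concentration that inhibits growth by half.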 Active and inactive are the calls of the source. Rule as the data show it: active = GI50 up to about 1.1 µM and inactive = higher.

Legend:
Assay in all cases: NCI-60 cell line screen, 48 h
NCI-H23 = test system: NCI-H23
A549 = test system: A549
SK-OV-3 = test system: SK-OV-3
LOX IMVI = test system: LOX IMVI
MDA-MB-435 = test system: MDA-MB-435
SR = test system: SR
SF-295 = test system: SF-295
CAKI-1 = test system: CAKI-1
SNB-75 = test system: SNB-75
HCT-116 = test system: HCT-116
Hs-578T = test system: Hs-578T
IGROV-1 = test system: IGROV-1
HT-29 = test system: HT-29
OVCAR-8 = test system: OVCAR-8
A498 = test system: A498
UACC-257 = test system: UACC-257
HOP-92 = test system: HOP-92
MOLT-4 = test system: MOLT-4
SN12C = test system: SN12C
NCI/ADR-RES = test system: NCI/ADR-RES

SMILES | GI50 (NCI-H23) | GI50 (A549) | GI50 (SK-OV-3) | GI50 (LOX IMVI) | GI50 (MDA-MB-435) | GI50 (SR) | GI50 (SF-295) | GI50 (CAKI-1) | GI50 (SNB-75) | GI50 (HCT-116) | GI50 (Hs-578T) | GI50 (IGROV-1) | GI50 (HT-29) | GI50 (OVCAR-8) | GI50 (A498) | GI50 (UACC-257) | GI50 (HOP-92) | GI50 (MOLT-4) | GI50 (SN12C) | GI50 (NCI/ADR-RES)
CCOC(=O)C1=C(C)N(c2ccc(Cl)cc2)C2(O)C=CC(=O)C3C(=O)N(c4ccccc4)C(=O)C132 (stereo not given) | 1.93 µM (inactive) | 2.83 µM (inactive) | 2.4 µM (inactive) | 1.36 µM (inactive) | 2.23 µM (inactive) | 0.292 µM (active) | 2.19 µM (inactive) | 1.87 µM (inactive) | 1.77 µM (inactive) | 1.44 µM (inactive) | 2.39 µM (inactive) | 1.54 µM (inactive) | 1.82 µM (inactive) | 2.12 µM (inactive) | 1.56 µM (inactive) | 2.29 µM (inactive) | 0.0649 µM (active) | 1.6 µM (inactive) | 2.3 µM (inactive) | 2.36 µM (inactive)
CC1=CC2=C(OCO1)C(=O)c1ccccc1C2=O | 3.27 µM (inactive) | 6.08 µM (inactive) | 13.3 µM (inactive) | 1.02 µM (active) | 1.46 µM (inactive) | 7.82 µM (inactive) | 4.17 µM (inactive) | 8.39 µM (inactive) | 3.66 µM (inactive) | 7.16 µM (inactive) | 1.67 µM (inactive) | 11 µM (inactive) | 7.4 µM (inactive) | 8.87 µM (inactive) | 14.5 µM (inactive) | 2.79 µM (inactive) | 10.4 µM (inactive) | 6.84 µM (inactive) | 5.68 µM (inactive) | 3.31 µM (inactive)
CC(C)(C)NCC(O)c1ccc(O)c(CO)n1 (stereo not given) | > 100 µM (inactive) | > 100 µM (inactive) | > 100 µM (inactive) | > 100 µM (inactive) | > 100 µM (inactive) | > 100 µM (inactive) | > 100 µM (inactive) | > 100 µM (inactive) | > 100 µM (inactive) | > 100 µM (inactive) | > 100 µM (inactive) | > 100 µM (inactive) | > 100 µM (inactive) | > 100 µM (inactive) | > 100 µM (inactive) | > 100 µM (inactive) | > 100 µM (inactive) | > 100 µM (inactive) | > 100 µM (inactive) | > 100 µM (inactive)
O=c1c2ccc(Cl)cc2oc2c(CSc3ccccc3)cccc12 | 28.4 µM (inactive) | > 32.4 µM (inactive) | > 55 µM (inactive) | 9.57 µM (inactive) | > 21.9 µM (inactive) | 9.64 µM (inactive) | > 43.9 µM (inactive) | > 38.5 µM (inactive) | > 33.2 µM (inactive) | 28.2 µM (inactive) | > 100 µM (inactive) | > 24 µM (inactive) | 95.9 µM (inactive) | 62.7 µM (inactive) | 25.7 µM (inactive) | > 57.9 µM (inactive) | > 39.4 µM (inactive) | 15.8 µM (inactive) | 43.6 µM (inactive) | > 50.2 µM (inactive)
CCOC(=O)CCc1ccc(NC(=O)/C=C/c2ccc([N+](=O)[O-])o2)cc1 | 0.863 µM (active) | 3.72 µM (inactive) | 9.12 µM (inactive) | 0.356 µM (active) | 0.316 µM (active) | 0.155 µM (active) | 3.48 µM (inactive) | 2.47 µM (inactive) | 2.16 µM (inactive) | 0.685 µM (active) | 3.16 µM (inactive) | 3.5 µM (inactive) | 0.925 µM (active) | 0.681 µM (active) | 3.14 µM (inactive) | 0.798 µM (active) | 4.04 µM (inactive) | 0.22 µM (active) | 1.43 µM (inactive) | 1.78 µM (inactive)
COc1cccc(Nc2n[nH]c(NS(=O)(=O)c3cc(C)c(Cl)cc3S)n2)c1 | > 100 µM (inactive) | > 100 µM (inactive) | > 100 µM (inactive) | > 100 µM (inactive) | > 100 µM (inactive) | > 100 µM (inactive) | > 100 µM (inactive) | > 100 µM (inactive) | > 100 µM (inactive) | > 100 µM (inactive) | > 100 µM (inactive) | > 100 µM (inactive) | > 100 µM (inactive) | > 100 µM (inactive) | > 100 µM (inactive) | > 100 µM (inactive) | > 100 µM (inactive) | > 100 µM (inactive) | > 100 µM (inactive) | > 100 µM (inactive)
COc1cc(Cc2cc3c(c(C(=O)O)c2Br)OCO3)cc(OC)c1OC | > 100 µM (inactive) | > 100 µM (inactive) | > 100 µM (inactive) | 83.8 µM (inactive) | 49.9 µM (inactive) | 52.6 µM (inactive) | > 100 µM (inactive) | > 100 µM (inactive) | > 100 µM (inactive) | 37 µM (inactive) | > 100 µM (inactive) | > 100 µM (inactive) | > 100 µM (inactive) | > 100 µM (inactive) | > 100 µM (inactive) | > 100 µM (inactive) | 55.5 µM (inactive) | 56.8 µM (inactive) | > 100 µM (inactive) | 85.3 µM (inactive)
CC(=C(C(=O)O)C(=O)O)c1cc(-c2cccs2)cc(-c2ccc(Cl)cc2)c1O | 17.3 µM (inactive) | 20.7 µM (inactive) | 33.7 µM (inactive) | 13.2 µM (inactive) | 15.6 µM (inactive) | 3.67 µM (inactive) | 17.9 µM (inactive) | 17.4 µM (inactive) | 18 µM (inactive) | 13.8 µM (inactive) | > 42.7 µM (inactive) | 15.2 µM (inactive) | 17.3 µM (inactive) | 19.2 µM (inactive) | 16 µM (inactive) | 16.7 µM (inactive) | 14.9 µM (inactive) | 6.41 µM (inactive) | 15.9 µM (inactive) | 20.3 µM (inactive)
Cc1cc(O)cc(O)c1C(=O)O[C@]1(C)C(=O)C=C2C=C(/C=C/C(=O)O)OC=C2C1=O | > 100 µM (inactive) | > 100 µM (inactive) | > 100 µM (inactive) | 37.2 µM (inactive) | > 100 µM (inactive) | 42.2 µM (inactive) | > 100 µM (inactive) | > 100 µM (inactive) | 0.76 µM (active) | 76.9 µM (inactive) | > 100 µM (inactive) | > 100 µM (inactive) | 94.4 µM (inactive) | > 100 µM (inactive) | > 100 µM (inactive) | > 100 µM (inactive) | 31.8 µM (inactive) | 60.8 µM (inactive) | > 100 µM (inactive) | > 100 µM (inactive)
CC(=O)Nc1ccc(-c2nc3ccccc3s2)cc1I | 18 µM (inactive) | 45 µM (inactive) | 18.3 µM (inactive) | 24.8 µM (inactive) | > 94.8 µM (inactive) | > 100 µM (inactive) | 29.4 µM (inactive) | 20 µM (inactive) | 24.2 µM (inactive) | 1.16 µM (inactive) | 39.5 µM (inactive) | 0.0184 µM (active) | > 65.6 µM (inactive) | 18.5 µM (inactive) | 6.5 µM (inactive) | > 100 µM (inactive) | 26.4 µM (inactive) | > 100 µM (inactive) | 36.6 µM (inactive) | 42.3 µM (inactive)
